The record followed here is US7375124B2, “Use of α-phenylthiocarboxylic and α-phenyloxycarboxylic acids with serum-glucose-lowering and serum-lipid-lowering activity” (Sigma-Tau Industrie Farmaceutiche Riunite S.p.A., priority 2002, dated 2008).

The test system of one data set is C57BL/KsJ db/db mouse. The data set is described as follows: Antidiabetic and serum-lipid-lowering activity in the db/db mouse (Experiments I and II). The settings on record: Experiment II; for Glucose: blood.
The next data set concerns the target T1, PPARγ (Mus musculus, UniProt P37238).
T1 construct: expressed in transfected cells; host or cells: NIH-3T3 (mouse embryonal fibroblasts)
T1 sequence (P37238 1-475 isoform P37238-2): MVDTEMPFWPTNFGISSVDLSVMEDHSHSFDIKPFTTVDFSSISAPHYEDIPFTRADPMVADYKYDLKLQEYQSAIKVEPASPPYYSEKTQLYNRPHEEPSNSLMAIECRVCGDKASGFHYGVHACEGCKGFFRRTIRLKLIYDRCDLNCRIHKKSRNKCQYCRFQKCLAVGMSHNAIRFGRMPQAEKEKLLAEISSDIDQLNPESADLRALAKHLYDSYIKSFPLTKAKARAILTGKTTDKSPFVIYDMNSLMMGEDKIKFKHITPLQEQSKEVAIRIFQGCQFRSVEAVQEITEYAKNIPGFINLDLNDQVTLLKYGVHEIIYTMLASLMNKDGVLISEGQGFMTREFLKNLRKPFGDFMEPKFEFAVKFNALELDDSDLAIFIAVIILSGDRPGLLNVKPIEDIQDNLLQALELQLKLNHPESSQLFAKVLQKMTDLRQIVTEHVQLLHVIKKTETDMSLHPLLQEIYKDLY
The data set is described as follows: Transactivation assay mediated by PPARγ in NIH-3T3 cells (CAT reporter). In kind it is cell-based. An excerpt:
A transactivation assay specific for PPARγ thus requires the simultaneous presence of the following in the preselected cell line: • a) a sufficient amount of PPARγ; • b) a sufficient amount of the 9 cis-retinoic acid receptor (RXR); • c) a chimeric plasmid containing the reporter gene controlled by a PPRE, located upstream of a viral heterologous promoter. In our case the reporter gene is chloramphenicol-acetyl transferase (CAT).
In the transactivation assay used, the preselected cells are transfected with the expression vector pSG5 Stop-mPPARg1 which allows the synthesis of the PPARγ receptor by the transfected cell. Simultaneously, a plasmid reporter (pBLCAT2-PPRE) is transfected which contains a peroxisome proliferator response element (PPRE) isolated by the gene promoter for acyl-CoA oxidase, upstream of the heterologous promoter of viral thymidine kinase (TK) fused with the reporter gene CAT. Since the endogenous cell levels of the RXR receptor are sufficiently high, it is not necessary to transfect an expression vector specific for RXR as well. […] Therefore, any increase in CAT levels will be the result of increased gene transcription dependent upon the dimerisation of PPARγ with RXR and upon the heterodimer bond formed with the peroxisome proliferator response element. Together with the expression vector and the reporter vector the cells are also transfected with the plasmid pCH110 which provides the internal control for the efficiency of transfection and the normalisation of the results
A cell line of mouse embryonal fibroblasts (NIH-3T3) was used [Hogan J. C. et al., Biochem Biophys Res Commun. 287 (2), 484-92 (2001)]. The cells were transfected with the reporter plasmid, the expression plasmid coding for the PPARγ receptor and the control vector pCH110. The cells were exposed to increasing concentrations of the study compounds and CAT activity was evaluated. Untreated cells were used as controls.
Mouse embryonal fibroblasts (NIH-3T3) were cultured according to the usual cell culture techniques, at 37° C. in a 5% v/v carbon dioxide atmosphere using as the growth medium DMEM (Dulbecco's modified Eagle's medium) modified with 3.7 g/l of sodium bicarbonate, 4 mM L-glutamine, 4.5 g/l of glucose, 1 mM sodium pyruvate and 10% v/v of calf serum, in the presence of streptomycin 100 μg/ml and penicillin 100 U/ml final.
The cells were co-transfected using the transfection reagent FuGENE6 (Roche), already described in the previous example. Twenty-four hours prior to transfection the cells were plated at a density of 8.0×10^4 cells/well in 12-well plates and maintained at 37° C. in a 5% v/v CO2 atmosphere. The culture medium, devoid of serum, was replaced 2 hours before transfection, and then the cells were treated with the transfection reagent FuGENE6, as described in the previous example. After 5 hours, the transfection medium was replaced by 1 ml of culture medium complete with serum and antibiotics in the presence or absence of the molecules to be tested at 3 different concentrations (2, 20 and 100 μM). Rosiglitazone, a known ligand of PPARγ, was used as the positive reference compound.
The cell protein extracts were prepared and the CAT activity assay was conducted exactly as described in the previous example.
As an internal control for the normalisation of the CAT activity in relation to the transfection efficiency, β-galactosidase activity coded for by the corresponding gene in the co-transfected plasmid pCH110 was used.
β-galatosidase activity was measured exactly as described in the previous example.
For the normalisation of the CAT assay results in relation to […] activity the formula described in the previous example was used.

The mark [1] stands for this setting: after 12 days' treatment, postabsorption, 7.5 hours after last treatment, mean ± S.E.

Text for C57BL/KsJ db/db mouse: Plasma levels of glucose, insulin, triglycerides, cholesterol, free fatty acids and urea were checked for a well-matched distribution of mice in the treatment groups.
At the start of treatment the body weights of the mice were checked and arrangements were made for monitoring water and feed consumption.
In the course of the experiment, serum glucose levels, oral glucose tolerance test (OGTT) findings, a number of lipid status parameters and weight gain were monitored.

As a reminder, the melting point is the temperature, or range, at which the solid turns liquid. `CC(C)(Sc1cccc(OCCc2ccc(Cl)cc2)c1)C(=O)O` [Example 2, 2-[3-[2-(4-chlorophenyl)ethoxy]phenylthio]-2-methylpropanoic acid] gave a melting point of 105 to 106 °C. Besides, the “Variation % (glucose) vs control” value with C57BL/KsJ db/db mouse (after 9 days' treatment, postabsorption, 8 hours after last treatment) was −66%. In the data set on C57BL/KsJ db/db mouse (after 11 days' treatment, OGTT glucose 3 g/kg), the “Variation % (AUC glucose at OGTT) vs control” value is listed as −43%. Further, the “AUC glucose at OGTT” value in the data set on C57BL/KsJ db/db mouse (after 11 days' treatment, OGTT glucose 3 g/kg, fasting 18 hours, 5 hours after last treatment, mean ± S.E.) is on record as 24517 ± 2261 a.u. Besides, in the data set on C57BL/KsJ db/db mouse (after 11 days' treatment, fasting 18 hours, 5 hours after last treatment), the “Variation % (glucose) vs control” value was −48%. Besides, in the data set with C57BL/KsJ db/db mouse (after 12 days' treatment), the “Variation % (HDL-cholesterol) vs control” value is “+19%”, the “Variation % (final b.w.) vs control” value is given as “+5%” and the “Variation % (triglycerides) vs control” value is listed as −44%. The “Glucose (plasma)” value with C57BL/KsJ db/db mouse (after 12 days' treatment, postabsorption (fasting 9 a.m. to 4.30 p.m.), 7.5 hours after last treatment, mean ± S.E.) was determined as 263 ± 30 mg/dL. In the data set on C57BL/KsJ db/db mouse (after 12 days' treatment, postabsorption, 7.5 hours after last treatment), the “Variation % (plasma glucose) vs control” value is recorded as −54%. For the same molecule, in the data set with C57BL/KsJ db/db mouse (setting [1]), the “HDL-choles. (plasma)” value is given as 102.5 ± 4.7Δ mg/dl and the “Triglycerides (plasma)” value was 48.6 ± 2.5 mg/dL. The molecule also came in with a Glucose in the data set on C57BL/KsJ db/db mouse (after 9 days' treatment, postabsorption (fasting 9 a.m. to 5 p.m.), 8 hours after last treatment, mean ± S.E.) of 155 ± 21 mg/dL. Also, the Glucose in the data set on C57BL/KsJ db/db mouse (after 11 days' treatment, fasting 18 hours, 5 hours after last treatment, mean ± S.E.) came to 128 ± 8 mg/dL. The molecule further registered a Final b.w. in the data set with C57BL/KsJ db/db mouse (final body weight after 12 days' treatment, postabsorption condition, mean ± S.E.) of 39.4 ± 0.9 g. In addition, in the data set on C57BL/KsJ db/db mouse (initial body weight), the “Variation % (initial b.w.) vs control” value is −3%. The Initial b.w. in the data set on C57BL/KsJ db/db mouse (initial body weight, postabsorption condition, mean ± S.E.) was 37.8 ± 0.5 g. Moreover, at PPARγ (2 μM), the “Activation of the gene-reporter CAT as a percentage of the reference compound (rosiglitazone 2 μM = 100%)” value was 28.6%. The “Activation of the gene-reporter CAT as a percentage of the reference compound (rosiglitazone 2 μM = 100%)” value on PPARγ (20 μM) was 61.2%. Besides, the “Activation of the gene-reporter CAT as a percentage of the reference compound (rosiglitazone 2 μM = 100%)” value at PPARγ (100 μM) was determined as 114.3%.
